Results taken from paper PMC3914206.

Columns and labels:
Format in all cases: binding
Set-up in all cases: KINOMEscan: ABL1(F317L)-phosphorylated / KINOMEscan: ABL1(H396P)-nonphosphorylated / KINOMEscan: ABL1(H396P)-phosphorylated / KINOMEscan: ABL1(M351T)-phosphorylated / KINOMEscan: ABL1(T315I)-phosphorylated / KINOMEscan: ABL1-nonphosphorylated / KINOMEscan: ABL1-phosphorylated / KINOMEscan: ACVR2A / KINOMEscan: ACVR2B / KINOMEscan: ADCK3 / KINOMEscan: ADCK4 / KINOMEscan: AKT1 / KINOMEscan: AKT3 / KINOMEscan: ALK / KINOMEscan: ARK5 / KINOMEscan: AURKA / KINOMEscan: AURKC / KINOMEscan: BIKE / KINOMEscan: BMPR1A / KINOMEscan: BMPR1B / KINOMEscan: BMX / KINOMEscan: BRK / KINOMEscan: BRSK1 / KINOMEscan: BRSK2 / KINOMEscan: CAMK1 / KINOMEscan: CAMK1D / KINOMEscan: CAMK1G / KINOMEscan: CAMK2A / KINOMEscan: CAMK2B / KINOMEscan: AAK1 / KINOMEscan: CAMK2D / KINOMEscan: CAMK2G / KINOMEscan: ABL1(F317I)-nonphosphorylated / KINOMEscan: ABL1(F317I)-phosphorylated / KINOMEscan: ABL1(F317L)-nonphosphorylated: unit: % Ctrl
panel of 442 kinases [1] = molecular target: T1, panel of 442 kinases (Homo sapiens, UniProt O60285); conditions: Compound Concentration 10 µM
T1 construct: purchased KINOMEscan
T1 sequence (O60285 1-661): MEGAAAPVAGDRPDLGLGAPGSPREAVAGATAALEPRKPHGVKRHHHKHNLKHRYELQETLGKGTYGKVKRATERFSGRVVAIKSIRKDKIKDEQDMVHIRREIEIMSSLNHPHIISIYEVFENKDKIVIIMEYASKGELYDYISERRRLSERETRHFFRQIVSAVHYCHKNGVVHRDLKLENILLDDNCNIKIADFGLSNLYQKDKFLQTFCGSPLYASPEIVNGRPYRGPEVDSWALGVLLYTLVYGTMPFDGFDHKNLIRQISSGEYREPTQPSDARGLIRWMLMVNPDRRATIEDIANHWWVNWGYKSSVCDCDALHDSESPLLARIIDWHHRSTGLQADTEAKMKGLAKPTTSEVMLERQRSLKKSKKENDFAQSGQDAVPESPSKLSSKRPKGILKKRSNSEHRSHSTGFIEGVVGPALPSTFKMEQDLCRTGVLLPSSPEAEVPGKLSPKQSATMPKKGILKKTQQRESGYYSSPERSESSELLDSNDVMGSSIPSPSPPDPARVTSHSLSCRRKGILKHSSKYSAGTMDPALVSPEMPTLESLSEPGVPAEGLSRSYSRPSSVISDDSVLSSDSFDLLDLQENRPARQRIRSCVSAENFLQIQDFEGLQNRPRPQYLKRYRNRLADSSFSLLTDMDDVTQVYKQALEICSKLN
From the text: (§1) We assessed the selectivity of members of this scaffold using the KINOMEscan methodology across a near comprehensive panel of 442 kinases [[18,27]].

panel of 442 kinases [2] = molecular target: T2, panel of 442 kinases (Homo sapiens, UniProt O96017); conditions: Compound Concentration 10 µM
T2 construct: purchased KINOMEscan
From the text: as §1

panel of 442 kinases [3] = molecular target: T3, panel of 442 kinases (Homo sapiens, UniProt Q96SB4); conditions: kinase SRPK1; compound concentration 10 µM
T3 construct: purchased KINOMEscan
From the text: as §1

T2 sequence (O96017 whole entry): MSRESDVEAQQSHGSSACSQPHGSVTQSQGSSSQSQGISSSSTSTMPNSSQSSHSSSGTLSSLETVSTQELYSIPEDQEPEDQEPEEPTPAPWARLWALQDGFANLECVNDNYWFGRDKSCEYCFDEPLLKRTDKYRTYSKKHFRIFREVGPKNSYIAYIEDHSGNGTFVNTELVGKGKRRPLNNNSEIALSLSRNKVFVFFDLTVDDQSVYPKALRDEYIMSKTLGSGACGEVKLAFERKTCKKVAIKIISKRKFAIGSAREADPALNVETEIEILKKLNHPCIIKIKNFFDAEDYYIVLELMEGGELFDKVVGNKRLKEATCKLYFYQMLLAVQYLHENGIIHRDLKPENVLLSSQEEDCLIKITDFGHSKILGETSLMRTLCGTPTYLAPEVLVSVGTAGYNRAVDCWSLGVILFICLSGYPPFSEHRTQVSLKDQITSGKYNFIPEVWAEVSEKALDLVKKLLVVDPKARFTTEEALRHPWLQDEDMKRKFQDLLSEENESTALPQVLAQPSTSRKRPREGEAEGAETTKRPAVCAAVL
T3 sequence (Q96SB4 whole entry): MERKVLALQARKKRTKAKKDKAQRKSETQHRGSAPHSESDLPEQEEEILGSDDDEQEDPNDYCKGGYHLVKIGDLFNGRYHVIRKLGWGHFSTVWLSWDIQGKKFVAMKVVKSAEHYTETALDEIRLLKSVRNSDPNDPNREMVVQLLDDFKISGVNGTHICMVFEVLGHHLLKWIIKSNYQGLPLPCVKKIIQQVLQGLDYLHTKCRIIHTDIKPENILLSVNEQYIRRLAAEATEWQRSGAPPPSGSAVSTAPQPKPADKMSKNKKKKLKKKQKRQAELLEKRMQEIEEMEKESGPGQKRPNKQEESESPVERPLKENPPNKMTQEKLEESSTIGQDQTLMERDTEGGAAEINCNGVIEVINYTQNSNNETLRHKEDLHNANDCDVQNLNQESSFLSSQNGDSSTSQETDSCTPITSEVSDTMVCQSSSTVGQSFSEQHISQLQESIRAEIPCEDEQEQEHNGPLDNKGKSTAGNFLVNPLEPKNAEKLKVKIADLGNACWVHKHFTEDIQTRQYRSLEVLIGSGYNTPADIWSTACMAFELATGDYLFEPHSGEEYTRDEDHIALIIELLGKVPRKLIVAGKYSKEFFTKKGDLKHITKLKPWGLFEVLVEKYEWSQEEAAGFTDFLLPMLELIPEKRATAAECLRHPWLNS

Row | SMILES | KINOMEscan: ARK5 (panel of 442 kinases [1]) | KINOMEscan: CHEK2 (panel of 442 kinases [2]) | % Ctrl, SRPK1 (panel of 442 kinases [3])
1 | COc1cc(C(=O)N2CCC(N3CCN(C)CC3)CC2)ccc1Nc1ncc2c(n1)N(C)c1ccccc1C(=O)N2C [15 (LRRK2-IN-1)] | 47 | 66 | 94 % Ctrl
2 | COc1cc(C(=O)N2CCC(N3CCN(C)CC3)CC2)ccc1Nc1ncc2c(n1)N1CCc3cccc(c31)C(=O)N2C [Compound 24] | 68 |  | 74 % Ctrl
3 | COc1cc(C(=O)N2CCC(N3CCN(C)CC3)CC2)ccc1Nc1ncc2c(n1)N(C1CCCC1)c1ccccc1C(=O)N2C [Compound 25, 11-cyclopentyl-2-((2-methoxy-4-(4-(4-methylpiperazin-1-yl)piperidine-1-carbonyl)phenyl)amino)-5-methyl-5H-benzo[e]pyrimido[5,4-b][1,4]diazepin-6(11H)-one] | 90 | 100 | 90 % Ctrl
4 | CCOc1cc(C(=O)N2CCC(N3CCN(C)CC3)CC2)ccc1Nc1ncc2c(n1)N(C1CCCC1)c1ccccc1C(=O)N2C [Compound 26] | 100 | 100 | 100 % Ctrl
